“Also recorded” adds a separate entry of the source.
Tests used:
[1] = system: Halyomorpha halys; conditions: for feeding on solvent-treated versus untreated green bean: starved adult males ages 3-7 days, 35 μl of solvent on 1-inch section of green bean
Procedure: We tested the effects of solvent on H. halys survival and feeding behavior to optimize the solvent used in petri dish assays. Mortality of 3rd stage nymphs, and adult males and females (ages 3-7 days or 13-23 days into adult stage), was quantified as the percentage of individuals who died after exposure to methylene chloride (DCM) after 2.25 hours. […] Insects were starved for 16-20 hours prior to being exposed to 1 inch cut sections of organic green beans in a 10 cm petri covered glass petri dish. One bean was coated with […] solvent while the other was untreated. Behaviors of young adult male individuals were recorded at three time points (45, 90, and 135 minutes) as feeding on the blank (untreated) bean, feeding on the odor (solvent-treated) bean, or sitting on the wall of the petri dish. Percent response for each choice was averaged over the three time periods.

[2] = system: Halyomorpha halys; assay: Optimized closed-air petri dish bioassay: feeding deterrence on green beans; assay type: in vivo; parameters: key to significance of repelling insect from treated bean relative to pentane control: p<0.05 (*); p<0.01 (**); p<0.001 (***); n.s.: compound tested was not significant in repelling insect from treated bean; conditions: for overall repellent effectiveness (conclusion): all age groups and sexes of H. halys
Procedure: Optimized petri dish bioassays: Insects tested were moved in groups from Thermo Forma cages to plastic petri dishes for food and water deprivation 16-20 hours before bioassays. Adults were separated by age and sex and held in groups of five, nymphs were held in groups of 20. Bioassays were conducted from April-June of 2012 between 8 a.m. and 4 p.m., in a fume hood lined with black paper and covered with black curtain to prevent external visual stimuli. The fume hood was illuminated by a single 60 watt light bulb with a light intensity of 800 LUX, placed 50 cm above bio assay arenas, with 26°-28° C. temperature and 50% relative humidity. Glass petri dishes (10 cm diameter) were used for the bioassay arena and were lined with Whatman's #1 filter paper (9 cm) that was changed before each assay. Adults were bioassayed individually. Nymphs were tested in groups of four because in preliminary assays they were observed continually walking for up to four hours unless conspecifics were present.
We then used the optimized solvent (i.e., pentane) to test the effects of different repellents on deterring H. halys feeding on organic green beans in petri dishes. Insects were tested in a glass Petri dish for their attraction/aversion to 1 μg and 100 μg concentrations of isolongifolanone and isolongifolenone (International Flavors and Fragrances, NY), C-13, and E-2-decenal, diluted in pentane. Pure pentane was tested as a control. Whatman's #1 filter paper (9 cm) was placed in petri dish and 2× one-inch diameter impressions were made with a metal circle. One circle was treated with 75 ul of pentane (control) and the other with pentane+repellant (treatment) and dried for five minutes. One-inch sections of organic green beans were placed over the treated or untreated circle. Starved insects were introduced to the petri dish assay arena and observed at three time points in 45 minute increments for 2.25 hours. Their location was recorded as feeding with stylet inserted on the treatment (i.e., odor) bean, blank bean, or off bean (i.e., walking off of food source or no movement in petri dish and not on bean). Individuals were only used for one bioassay at the adult or nymphal stage in their lifetime. Petri dishes were rinsed with water daily and baked overnight at 100° C., and were rinsed with acetone after every six uses.
Optimized petri dish bioassays were analyzed for each age group, sex, and treatment using Likelihood Ratio tests (JMP®). Percent response for each choice per compound was averaged over the three time periods observed. The likelihood of the three choices was set to the level determined by the pentane control for each age/sex group, and the confidence interval set at 95%. P-values are indicated as follows: *=0.05; **=0.01; ***=0.001.

[3] = system: Halyomorpha halys; assay: Open-air small cage bioassay: feeding deterrence/repellency on treated peaches and apples; assay type: in vivo; conditions: open-air system
Procedure: Small Cage Bioassays: Nymphs and adults were tested for effects of feeding deterrents/repellents from islongifolanone, islongifolenone, C-13, and E-2-decenal applied to organic peaches and gala apples in a small cage. Insects were starved for 16 hours prior to experiments before being transferred in groups of 15 (nymphs) or 10 (adults male or female) to two gallon containers containing one treated fruit, and observed hourly for the number of nymphs on the fruit. Experiments were conducted in a fume hood under the same light and heat conditions as above. Different concentrations of isolongifolanone, isolongifolenone, C-13, and E-2-decenal were tested both individually and combined (equal amount of each component), with a final concentration of 70-80 mg/fruit chosen as an effective treatment. Compounds (400 mg) were combined with the emulsifier Tween-80 (2 mg), mixed with water (H2O 10 ml) in glass vial (20 ml), and sonicated for 20 min. The solution containing emulsifier Tween-80 (2 mg) in 10 ml water was used as control. […]
Small cage bioassays were analyzed by replicate, treatment, and time using repeated measures ANOVA and multiple comparisons for treatments were tested using Tukeys HSD, Model: Nymphs on Fruit=Treatment, Rep (Treatment), Time, Treatment*Time.

[4] = Nymph (3rd stage), starved, 1 μg in pentane on filter paper under green bean
[5] = Nymph (3rd stage), starved, 100 μg in pentane on filter paper under green bean
[6] = Old Adult Male (13-23 days), 1 μg
[7] = Old Adult Male (13-23 days), 100 μg
[8] = Young Adult Male (3-7 days), 1 μg
[9] = Young Adult Male (3-7 days), 100 μg
[10] = old adult females, 100 μg, FIG. 6E
[11] = starved nymphs (3rd stage), 100 μg, FIG. 6A
[12] = young adult females, 100 μg, FIG. 6C
[13] = young adult males (3-7 days), 100 μg, FIG. 6B
[14] = starved nymphs (3rd stage), 1 μg, FIG. 6A

| Compound | feeding on solvent-treated versus untreated green bean [1] | repellency/deterrence across age groups and sexes (summary of Table 1) ([2]; 100 μg concentration) | significance of repelling insect from treated bean relative to pentane control [2, 4] | significance of repelling insect from treated bean relative to pentane control [2, 5] | significance of repelling insect from treated bean relative to pentane control ([2]; Old Adult Female, 1 μg) | significance of repelling insect from treated bean relative to pentane control ([2]; Old Adult Female, 100 μg) | significance of repelling insect from treated bean relative to pentane control [2, 6] | significance of repelling insect from treated bean relative to pentane control [2, 7] | significance of repelling insect from treated bean relative to pentane control ([2]; Young Adult Female, 1 μg) | significance of repelling insect from treated bean relative to pentane control ([2]; Young Adult Female, 100 μg) | significance of repelling insect from treated bean relative to pentane control [2, 8] | significance of repelling insect from treated bean relative to pentane control [2, 9] | likelihood to feed on treated green bean (in words) [2, 11] | likelihood to feed on treated green bean (in words) [2, 13] | further results |
| --- | --- | --- | --- | --- | --- | --- | --- | --- | --- | --- | --- | --- | --- | --- | --- |
| CCO [ethanol] | Less feeding aversion | – | – | – | – | – | – | – | – | – | – | – | – | – | – |
| CCCCCCC/C=C/C=O [E-2-decenal] | – | effective at deterring old adult males | ** (p<0.01 (**)) | n.s. | n.s. | * (p<0.05 (*)) | n.s. | * (p<0.05 (*)) | n.s. | n.s. | ** (p<0.01 (**)) | n.s. | – | – | repellency/deterrence across age groups and sexes (summary of Table 1) ([2]; 1 μg): effective at deterring Nymphs, young adult males, and old adult females; likelihood to feed on treated green bean (in words) ([2]; young adult males (3-7 days), 1 μg, FIG. 6B): significantly less likely to feed |
| CCCCC [pentane] | slight preference for pentane-treated green beans over the untreated control bean | – | – | – | – | – | – | – | – | – | – | – | – | – | – |
| ClCCl [methylene chloride (DCM), methylene chloride] | significantly less likely to feed | – | – | – | – | – | – | – | – | – | – | – | – | – | mortality (susceptibility) after exposure to solvent ([1]; 3rd stage nymphs, adult males and females, after 2.25 hours): young adult males were the most susceptible |
| CCCCCC [hexane] | significantly less likely to feed | – | – | – | – | – | – | – | – | – | – | – | – | – | – |
| isolongifolanone | – | significantly repellent to all age groups and sexes | – | *** (p<0.001 (***)) | – | *** (p<0.001 (***)) | – | *** (p<0.001 (***)) | – | *** (p<0.001 (***)) | – | *** (p<0.001 (***)) | significantly less likely to feed | significantly less likely to feed | overall repellent effectiveness (conclusion) [2]: highly effective repellents; likelihood to feed on treated green bean (in words) [2, 10]: significantly less likely to feed; also recorded: deterred; likelihood to feed on treated green bean (in words) ([2]; old adult males (13-23 days), 100 μg, FIG. 6D): significantly less likely to feed; likelihood to feed on treated green bean (in words) [2, 12]: significantly less likely to feed; also recorded: deterred |
| CC1(C)C2=CC(=O)CC(C)(C)[C@]23CC[C@H]1C3 [isolongifolenone] | – | deterring all groups except for old adult males | *** (p<0.001 (***)) | ** (p<0.01 (**)) | n.s. | * (p<0.05 (*)) | n.s. | n.s. | n.s. | *** (p<0.001 (***)) | n.s. | *** (p<0.001 (***)) | significantly less likely to feed | significantly less likely to feed | overall repellent effectiveness (conclusion) [2]: highly effective repellents; likelihood to feed on treated green bean (in words) [2, 10]: significantly less likely to feed; also recorded: deterred; likelihood to feed on treated green bean (in words) [2, 14]: significantly less likely to feed; likelihood to feed on treated green bean (in words) [2, 12]: significantly less likely to feed; also recorded: deterred |
| CC(C)=O [acetone] | significantly less likely to feed | – | – | – | – | – | – | – | – | – | – | – | – | – | – |
| CCCCCCCCCCCCC [C-13, tridecane] | – | – | *** (p<0.001 (***)) | ** (p<0.01 (**)) | n.s. | n.s. | n.s. | * (p<0.05 (*)) | n.s. | n.s. | n.s. | * (p<0.05 (*)) | significantly less likely to feed | significantly less likely to feed | repellency/deterrence across age groups and sexes (summary) ([2]; concentration not given, diluted in pentane): deterrent to young males and old adult males and nymphs; also recorded: deterred H. halys feeding; likelihood to feed on treated green bean (in words) ([2]; old adult males (13-23 days), 1 μg, FIG. 6D): significantly less likely to feed; likelihood to feed on treated green bean (in words) [2, 14]: significantly less likely to feed; repellency in small cage tests compared with petri dish [3]: decreased repellency |

Source: patent publication US9320280B2, “Methods and compositions for deterring feeding/repelling the brown marmorated stink bug (BMSB), Halyomorpha halys” (The United States of America, as Represented by the …, priority 2012, dated 2016)
